Measured values published in patent publication US8598344B2, “CDKI pathway inhibitors and uses thereof” (Senex Biotechnology, priority 2009, dated 2013).
Read-outs that look alike come from different tables or passages of the source.

What was measured:
[1] = biological target: T1, CLK4 (Homo sapiens, UniProt Q9HAZ1); test: KinomeScan competition binding assay; details: 10 μM compound
T1 construct: purchased KinomeScan, a division of Ambit Biosciences
Method in brief: (§1)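 qPCR read-out of DNA tag; DNA-tagged kinase + immobilized ATP-site ligand + test compound. Competition binding expressed as % of control (POC) or Kd.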

[2] = biological target: T2, PIP5K2C (Homo sapiens, UniProt Q8TBX8); test: KinomeScan competition binding assay; details: 10 μM compound
T2 construct: purchased KinomeScan, a division of Ambit Biosciences
T2 sequence (Q8TBX8 1-421): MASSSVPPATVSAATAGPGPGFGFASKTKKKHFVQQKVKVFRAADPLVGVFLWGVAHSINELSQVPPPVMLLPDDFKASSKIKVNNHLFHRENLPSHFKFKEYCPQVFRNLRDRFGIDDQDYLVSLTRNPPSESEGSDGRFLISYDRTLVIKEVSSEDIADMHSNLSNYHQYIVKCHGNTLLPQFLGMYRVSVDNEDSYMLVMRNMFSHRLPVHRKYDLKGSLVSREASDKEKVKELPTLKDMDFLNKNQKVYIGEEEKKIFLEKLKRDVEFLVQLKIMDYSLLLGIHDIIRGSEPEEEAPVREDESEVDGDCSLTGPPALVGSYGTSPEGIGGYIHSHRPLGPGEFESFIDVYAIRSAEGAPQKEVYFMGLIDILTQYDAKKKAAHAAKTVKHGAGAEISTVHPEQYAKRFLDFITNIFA
Method in brief: as §1

[3] = biological target: T3, PIK3CG (Homo sapiens, UniProt P48736); test: KinomeScan competition binding assay; details: 10 μM compound
T3 construct: purchased KinomeScan, a division of Ambit Biosciences
Method in brief: as §1

[4] = biological target: T4, IRAK1 (Homo sapiens, UniProt P51617); test: KinomeScan competition binding assay; details: 10 μM compound
T4 construct: purchased KinomeScan, a division of Ambit Biosciences
T4 sequence (P51617 whole entry): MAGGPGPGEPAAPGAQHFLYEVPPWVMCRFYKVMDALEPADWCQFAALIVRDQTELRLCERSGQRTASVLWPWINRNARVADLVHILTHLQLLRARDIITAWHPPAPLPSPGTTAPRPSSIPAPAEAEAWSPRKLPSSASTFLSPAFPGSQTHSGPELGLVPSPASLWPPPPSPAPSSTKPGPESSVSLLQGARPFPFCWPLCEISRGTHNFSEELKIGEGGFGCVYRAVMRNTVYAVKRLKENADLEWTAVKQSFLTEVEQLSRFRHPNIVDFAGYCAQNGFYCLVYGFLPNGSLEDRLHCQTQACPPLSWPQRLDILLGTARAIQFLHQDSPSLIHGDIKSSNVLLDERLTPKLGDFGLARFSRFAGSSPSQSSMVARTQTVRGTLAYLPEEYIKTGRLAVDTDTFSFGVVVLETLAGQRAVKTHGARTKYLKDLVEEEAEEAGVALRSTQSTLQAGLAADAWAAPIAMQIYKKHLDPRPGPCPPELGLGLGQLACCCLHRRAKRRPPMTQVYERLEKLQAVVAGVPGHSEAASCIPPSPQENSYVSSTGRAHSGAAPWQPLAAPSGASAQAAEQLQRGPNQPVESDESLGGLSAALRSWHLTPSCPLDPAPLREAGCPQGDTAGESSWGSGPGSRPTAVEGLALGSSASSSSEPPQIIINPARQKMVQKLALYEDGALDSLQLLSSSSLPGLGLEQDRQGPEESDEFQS
Method in brief: as §1

[5] = biological target: T5, CSNK1G3 (Homo sapiens, UniProt Q9Y6M4); test: KinomeScan competition binding assay; details: 10 μM compound
T5 construct: purchased KinomeScan, a division of Ambit Biosciences
T5 sequence (Q9Y6M4 whole entry): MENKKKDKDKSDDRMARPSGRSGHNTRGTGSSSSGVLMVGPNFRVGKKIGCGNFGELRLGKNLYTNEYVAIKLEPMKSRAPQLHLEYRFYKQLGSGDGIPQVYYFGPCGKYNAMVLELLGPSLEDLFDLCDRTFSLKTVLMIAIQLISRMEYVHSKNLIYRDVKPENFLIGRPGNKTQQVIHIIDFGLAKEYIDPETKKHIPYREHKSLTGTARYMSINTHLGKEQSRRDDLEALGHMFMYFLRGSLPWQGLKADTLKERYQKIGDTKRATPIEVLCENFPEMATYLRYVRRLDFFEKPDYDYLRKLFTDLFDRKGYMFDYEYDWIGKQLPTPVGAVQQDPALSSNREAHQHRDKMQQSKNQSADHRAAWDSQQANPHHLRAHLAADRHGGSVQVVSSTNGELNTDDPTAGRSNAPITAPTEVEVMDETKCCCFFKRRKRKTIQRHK
Method in brief: as §1

[6] = biological target: T6, PIK3CA (I800L) (Homo sapiens, UniProt P42336, I800L); test: KinomeScan competition binding assay; details: 10 μM compound
T6 construct: purchased KinomeScan, a division of Ambit Biosciences
T6 sequence (P42336 whole entry I800L): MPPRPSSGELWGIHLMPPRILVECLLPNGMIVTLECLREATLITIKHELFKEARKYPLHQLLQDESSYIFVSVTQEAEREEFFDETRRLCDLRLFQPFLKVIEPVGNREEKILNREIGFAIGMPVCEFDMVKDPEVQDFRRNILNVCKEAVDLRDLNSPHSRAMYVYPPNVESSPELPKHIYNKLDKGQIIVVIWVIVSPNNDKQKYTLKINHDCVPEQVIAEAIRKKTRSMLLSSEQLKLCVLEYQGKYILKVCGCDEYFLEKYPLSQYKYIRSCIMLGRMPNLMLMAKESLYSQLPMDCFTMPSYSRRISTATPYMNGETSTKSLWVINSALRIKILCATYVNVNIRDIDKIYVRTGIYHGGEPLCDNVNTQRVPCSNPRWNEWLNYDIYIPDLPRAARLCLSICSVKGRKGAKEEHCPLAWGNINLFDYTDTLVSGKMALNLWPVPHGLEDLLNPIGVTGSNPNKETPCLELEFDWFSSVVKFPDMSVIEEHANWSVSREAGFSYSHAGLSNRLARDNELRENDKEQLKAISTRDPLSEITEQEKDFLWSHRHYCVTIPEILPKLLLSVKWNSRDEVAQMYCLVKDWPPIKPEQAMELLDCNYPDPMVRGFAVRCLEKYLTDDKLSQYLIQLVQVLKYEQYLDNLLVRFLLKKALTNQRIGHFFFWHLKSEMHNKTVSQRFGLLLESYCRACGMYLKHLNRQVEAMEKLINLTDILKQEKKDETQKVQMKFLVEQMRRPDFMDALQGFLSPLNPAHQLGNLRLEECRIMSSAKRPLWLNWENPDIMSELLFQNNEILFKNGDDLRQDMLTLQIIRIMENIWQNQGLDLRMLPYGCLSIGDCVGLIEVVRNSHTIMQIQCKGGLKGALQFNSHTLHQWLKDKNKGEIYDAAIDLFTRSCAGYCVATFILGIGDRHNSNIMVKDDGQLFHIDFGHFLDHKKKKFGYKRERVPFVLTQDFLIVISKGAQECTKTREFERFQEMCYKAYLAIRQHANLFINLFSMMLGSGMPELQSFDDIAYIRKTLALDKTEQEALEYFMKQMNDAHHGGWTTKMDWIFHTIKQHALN
Method in brief: as §1

[7] = biological target: T7, CDK19 (Homo sapiens, UniProt Q9BWU1); test: KinomeScan competition binding assay; details: for inhibition of CDK19: 10 μM; for POC ligand binding, CDK19: 10 μM compound; for Kd: read-out: CDK19 inhibition (Kd)
T7 construct: purchased KinomeScan, a division of Ambit Biosciences
T7 sequence (Q9BWU1 whole entry): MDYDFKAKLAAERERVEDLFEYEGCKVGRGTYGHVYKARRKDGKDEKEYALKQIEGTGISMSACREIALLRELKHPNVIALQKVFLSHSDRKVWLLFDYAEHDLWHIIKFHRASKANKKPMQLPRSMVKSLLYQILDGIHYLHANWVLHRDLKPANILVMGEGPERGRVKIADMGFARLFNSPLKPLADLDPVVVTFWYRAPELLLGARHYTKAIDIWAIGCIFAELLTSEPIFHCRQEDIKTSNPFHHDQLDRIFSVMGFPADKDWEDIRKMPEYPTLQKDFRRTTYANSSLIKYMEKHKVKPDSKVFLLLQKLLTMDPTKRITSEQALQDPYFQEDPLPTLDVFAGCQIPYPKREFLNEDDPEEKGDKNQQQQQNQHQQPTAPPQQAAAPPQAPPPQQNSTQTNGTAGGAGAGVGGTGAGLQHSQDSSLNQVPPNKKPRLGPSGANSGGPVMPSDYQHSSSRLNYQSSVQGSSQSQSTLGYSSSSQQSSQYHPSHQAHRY
Method in brief: as §1

[8] = biological target: T8, HIPK3 (Homo sapiens, UniProt Q9H422); test: KinomeScan competition binding assay; details: 10 μM compound
T8 construct: purchased KinomeScan, a division of Ambit Biosciences
T8 sequence (Q9H422 whole entry): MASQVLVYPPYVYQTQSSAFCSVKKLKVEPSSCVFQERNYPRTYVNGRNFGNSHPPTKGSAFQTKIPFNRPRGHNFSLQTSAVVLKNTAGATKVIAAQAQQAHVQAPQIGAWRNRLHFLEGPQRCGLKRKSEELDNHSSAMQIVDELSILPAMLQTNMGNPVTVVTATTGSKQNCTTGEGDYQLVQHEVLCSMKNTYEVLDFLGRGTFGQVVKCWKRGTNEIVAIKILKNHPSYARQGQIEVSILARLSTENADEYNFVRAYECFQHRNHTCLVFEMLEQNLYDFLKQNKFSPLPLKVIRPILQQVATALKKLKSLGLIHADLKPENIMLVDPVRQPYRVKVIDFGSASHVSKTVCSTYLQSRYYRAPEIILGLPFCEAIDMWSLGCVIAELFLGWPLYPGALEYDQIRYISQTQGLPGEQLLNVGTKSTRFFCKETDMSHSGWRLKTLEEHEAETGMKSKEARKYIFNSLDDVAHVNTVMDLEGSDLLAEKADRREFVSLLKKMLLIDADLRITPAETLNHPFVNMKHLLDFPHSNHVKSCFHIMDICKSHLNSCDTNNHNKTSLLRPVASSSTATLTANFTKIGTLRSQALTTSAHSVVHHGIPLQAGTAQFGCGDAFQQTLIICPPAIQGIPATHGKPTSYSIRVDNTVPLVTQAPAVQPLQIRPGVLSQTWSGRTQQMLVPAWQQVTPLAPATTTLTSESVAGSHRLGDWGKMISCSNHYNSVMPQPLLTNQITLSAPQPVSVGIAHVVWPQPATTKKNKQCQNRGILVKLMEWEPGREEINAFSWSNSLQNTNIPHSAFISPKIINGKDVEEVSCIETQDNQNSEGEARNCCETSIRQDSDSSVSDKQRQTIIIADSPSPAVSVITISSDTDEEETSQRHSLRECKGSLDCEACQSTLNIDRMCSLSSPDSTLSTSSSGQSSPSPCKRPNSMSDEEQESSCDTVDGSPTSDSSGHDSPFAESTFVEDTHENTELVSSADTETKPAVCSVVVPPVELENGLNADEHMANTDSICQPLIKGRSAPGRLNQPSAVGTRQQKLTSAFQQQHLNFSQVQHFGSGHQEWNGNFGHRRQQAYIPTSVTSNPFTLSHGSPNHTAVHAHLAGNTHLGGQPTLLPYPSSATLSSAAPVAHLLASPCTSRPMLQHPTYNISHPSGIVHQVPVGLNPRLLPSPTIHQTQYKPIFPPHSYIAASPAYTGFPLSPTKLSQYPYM
Method in brief: as §1

[9] = biological target: T9, EGFR (G719C) (Homo sapiens, UniProt P00533, G719C); test: KinomeScan competition binding assay; details: 10 μM compound
T9 construct: purchased KinomeScan, a division of Ambit Biosciences
Method in brief: as §1

[10] = biological target: T10, MAPKAPK5 (Homo sapiens, UniProt Q8IW41); test: KinomeScan competition binding assay; details: 10 μM compound
T10 construct: purchased KinomeScan, a division of Ambit Biosciences
T10 sequence (Q8IW41 1-473): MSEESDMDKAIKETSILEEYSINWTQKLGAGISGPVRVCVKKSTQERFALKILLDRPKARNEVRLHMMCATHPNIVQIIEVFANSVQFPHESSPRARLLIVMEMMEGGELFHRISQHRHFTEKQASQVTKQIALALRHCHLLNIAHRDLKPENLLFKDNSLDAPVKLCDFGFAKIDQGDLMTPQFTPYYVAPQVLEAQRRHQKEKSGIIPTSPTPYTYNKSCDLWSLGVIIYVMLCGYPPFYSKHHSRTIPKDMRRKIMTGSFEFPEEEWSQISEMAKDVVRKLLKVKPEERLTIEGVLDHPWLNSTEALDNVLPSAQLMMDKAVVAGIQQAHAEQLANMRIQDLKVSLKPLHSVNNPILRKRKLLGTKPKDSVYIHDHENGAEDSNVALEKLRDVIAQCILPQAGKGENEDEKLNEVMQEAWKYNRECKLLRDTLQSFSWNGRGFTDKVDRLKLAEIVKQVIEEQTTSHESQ
Method in brief: as §1

[11] = biological target: T11, CLK1 (Homo sapiens, UniProt P49759); test: KinomeScan competition binding assay; details: 10 μM compound
T11 construct: purchased KinomeScan, a division of Ambit Biosciences
T11 sequence (P49759 whole entry): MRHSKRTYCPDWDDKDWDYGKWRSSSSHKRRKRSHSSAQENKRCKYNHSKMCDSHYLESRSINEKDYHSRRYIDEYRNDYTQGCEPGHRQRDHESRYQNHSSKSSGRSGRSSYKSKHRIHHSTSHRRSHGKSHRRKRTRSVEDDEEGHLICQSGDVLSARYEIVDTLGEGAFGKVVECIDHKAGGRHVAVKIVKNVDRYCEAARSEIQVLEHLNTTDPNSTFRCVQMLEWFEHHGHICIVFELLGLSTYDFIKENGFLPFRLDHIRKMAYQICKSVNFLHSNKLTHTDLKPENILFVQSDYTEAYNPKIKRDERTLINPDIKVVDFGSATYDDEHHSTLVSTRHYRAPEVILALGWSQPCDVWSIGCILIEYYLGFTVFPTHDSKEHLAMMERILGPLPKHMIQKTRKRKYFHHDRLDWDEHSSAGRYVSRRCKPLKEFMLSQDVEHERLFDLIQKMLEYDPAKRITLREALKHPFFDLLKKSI
Method in brief: as §1

[12] = tested on: induction of transcription by p21 (CDKI pathway, CMV promoter-GFP) in HT1080 fibrosarcoma cells; test: Cellular assay for CDKI pathway inhibition: CMV-GFP induction by IPTG-inducible p21 in HT1080 reporter cells; type: cell-based, human
Experimental: Briefly, the reporter cell line described in the above-referenced application, which carries IPTG (isopropyl-β-thio-galactoside)-inducible p21 gene together with a p21-inducible promoter driving the expression of Green Fluorescent Protein (GFP) was plated in 96-well plates, at 2000 cells per well for the no-IPTG arm of the assay and at 5000 cells per well for the IPTG arm of the assay. To induce the maximal levels of p21, IPTG was added to 50 μM concentration. Serial 2-fold dilutions of the tested compounds were added in quadruplicates to wells with and without IPTG, ˜10 min after IPTG addition.
This assay is based on the induction of green fluorescent protein (GFP) expression from the cytomegalovirus (CMV) promoter in human HT1080 fibrosarcoma cells that express CDKI p21 from an isopropyl-(3-thio-galactoside (IPTG)-inducible promoter. The compound activity as a CDKI pathway inhibitor is measured by its ability to prevent the stimulation of the CMV promoter upon the addition of p21-inducing IPTG. CMV promoter activity is measured by the ratio of GFP fluorescence to the relative cell number, as determined by staining cellular DNA with Hoechst 33342. This assay was conducted in two modes. […]

[13] = biological target: CDK7 (Homo sapiens, UniProt P50613); test: KinomeScan competition binding assay; parameters: purchased KinomeScan, a division of Ambit Biosciences; details: 10 μM compound
Description: This similarity led us to test SNX14 for the ability to inhibit 285 kinases, using the services of KinaseProfiler of Millipore Corporation (285 kinases). […] The KINOMEscan assay has been described in detail in Fabian et al., Nat. Biotechnol. 23: 329 (2005) and Karaman et al., Nat. Biotechnol. 26: 127 (2008).
The KinomeScan assay is based on a competition binding assay that quantitatively measures the ability of a compound to compete with an immobilized, ATP site directed ligand. The assay is performed by combining three components: DNA-tagged kinase; immobilized ligand; and a test compound. The ability of the test compound to compete with the immobilized ligand is measured via quantitative PCR of the DNA tag. […] The CDKs tested by Millipore for inhibition with SNX14 included CDK1, CDK2, CDK3, CDK5, CDK7 and CDK9; none of these were inhibited to less than 49 percent of control (POC) activity. The CDKs tested by KinomeScan for the effect of Compound 1 included CDK2, CDK3, CDK4, CDK5, CDK7, CDK8, CDK9 and CDK19; aside from CDK8 and CDK19, the strongest inhibited CDK was CDK7 (33% POC binding). […] We have also determined the binding constant (Kd) for SNX14, compound 1, compound 20, compound 26, compound 43 and compound 14 in kinase assays for CDK8 and CDK19 (Table 1).

[14] = Table 1, IC50 calculated on the basis of the maximal inhibition produced by the highest doses, IPTG mode (50 μM or 2 μM) not stated, read-out: Cell-based assay (IC50)
[15] = Table 2, calculated assuming maximal effect = zero GFP/Hoechst, no unit in table, μM from FIG. 8 legend, no activity at 40 μM given as >100, read-out: IC50 in the cellular assay

T1 sequence (Q9HAZ1 whole entry): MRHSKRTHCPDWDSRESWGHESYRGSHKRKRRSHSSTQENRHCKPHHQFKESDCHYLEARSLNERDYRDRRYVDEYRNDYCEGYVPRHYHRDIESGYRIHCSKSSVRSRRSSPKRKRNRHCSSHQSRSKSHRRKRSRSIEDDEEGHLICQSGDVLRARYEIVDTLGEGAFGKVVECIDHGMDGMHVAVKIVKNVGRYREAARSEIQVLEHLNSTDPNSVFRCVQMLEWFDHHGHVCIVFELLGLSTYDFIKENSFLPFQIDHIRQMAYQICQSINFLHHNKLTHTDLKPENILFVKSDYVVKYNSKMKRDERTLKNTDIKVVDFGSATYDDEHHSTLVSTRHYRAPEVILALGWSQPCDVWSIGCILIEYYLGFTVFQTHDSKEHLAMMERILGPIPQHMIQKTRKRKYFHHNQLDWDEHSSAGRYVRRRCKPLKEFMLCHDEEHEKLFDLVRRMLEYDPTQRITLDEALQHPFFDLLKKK

SMILES: N#Cc1ccc2ncnc(NCCc3ccccc3)c2c1 [compound 1]
- POC ligand binding, CLK4 [1]: 8 POC
- POC ligand binding, PIP5K2C [2]: 1.2 POC
- POC ligand binding, PIK3CG [3]: 8 POC
- POC ligand binding, IRAK1 [4]: 8.2 POC
- POC ligand binding, CSNK1G3 [5]: 16 POC
- POC ligand binding, PIK3CA (I800L) [6]: 17 POC
- inhibition of CDK19 [7]: > 99%
- POC ligand binding, CDK19 [7]: 0.05 POC
- Kd [7]: 310 nM
- POC ligand binding, HIPK3 [8]: 18 POC
- POC ligand binding, EGFR (G719C) [9]: 13 POC
- POC ligand binding, MAPKAPK5 [10]: 15 POC
- POC ligand binding, CLK1 [11]: 4.2 POC
- IC50 [12, 14]: 0.641 µM
- IC50 [12, 15]: 1.3 µM
- IC50 ([12]; read-out: IC50, p21 induced by 8 μM IPTG, 8 μM IPTG, 72 hours): 0.57 µM
- POC binding, CDK7 [13]: 33 % POC

SMILES: N#Cc1ccc2ncnc(NCc3ccc4ccccc4c3)c2c1 [compound 14]
- POC ligand binding, CLK4 ([1]; 10 µM): 16 POC
- POC ligand binding, PIP5K2C ([2]; 10 µM): 16 POC
- POC ligand binding, PIK3CG [3]: 35 POC
- POC ligand binding, IRAK1 ([4]; 10 µM): 35 POC
- POC ligand binding, CSNK1G3 ([5]; 10 µM): 52 POC
- POC ligand binding, PIK3CA (I800L) ([6]; 10 µM): 62 POC
- POC ligand binding, CDK19 ([7]; 10 µM): 0.1 POC
- Kd [7]: 1100 nM
- POC ligand binding, HIPK3 ([8]; 10 µM): 35 POC
- POC ligand binding, EGFR (G719C) ([9]; 10 µM): 92 POC
- POC ligand binding, MAPKAPK5 ([10]; 10 µM): 100 POC
- POC ligand binding, CLK1 ([11]; 10 µM): 18 POC
- IC50 [12, 14]: 2.54 µM
- IC50 [12, 15]: 1.2 µM

SMILES: N#Cc1ccc2ncnc(NCc3ccc(Cl)cc3)c2c1 [compound 20]
- POC ligand binding, CLK4 [1]: 11 POC
- POC ligand binding, PIP5K2C [2]: 2.4 POC
- POC ligand binding, PIK3CG [3]: 40 POC
- POC ligand binding, IRAK1 [4]: 26 POC
- POC ligand binding, CSNK1G3 [5]: 82 POC
- POC ligand binding, PIK3CA (I800L) [6]: 73 POC
- POC ligand binding, CDK19 [7]: 0 POC
- Kd [7]: 99 nM
- POC ligand binding, HIPK3 [8]: 28 POC
- POC ligand binding, EGFR (G719C) [9]: 34 POC
- POC ligand binding, MAPKAPK5 [10]: 92 POC
- POC ligand binding, CLK1 [11]: 12 POC
- IC50 [12, 14]: 0.199 µM
- IC50 [12, 15]: 0.6 µM

SMILES: N#Cc1ccc2ncnc(NCCc3ccc4ccccc4c3)c2c1 [compound 26]
- POC ligand binding, CLK4 [1]: 26 POC
- POC ligand binding, PIP5K2C [2]: 39 POC
- POC ligand binding, PIK3CG [3]: 58 POC
- POC ligand binding, IRAK1 [4]: 89 POC
- POC ligand binding, CSNK1G3 [5]: 50 POC
- POC ligand binding, PIK3CA (I800L) [6]: 81 POC
- inhibition of CDK19 [7]: 94.6%
- POC ligand binding, CDK19 [7]: 5.6 POC
- Kd [7]: 160 nM
- POC ligand binding, HIPK3 [8]: 66 POC
- POC ligand binding, EGFR (G719C) [9]: 68 POC
- POC ligand binding, MAPKAPK5 [10]: 100 POC
- POC ligand binding, CLK1 [11]: 32 POC
- IC50 [12, 14]: 0.769 µM
- IC50 [12, 15]: 1.15 µM
